This series concerns CD34+ cells. As to the kind of experiment: Separation of CD34+ cells from mobilised blood using shear fractionation and pre-treatment with chymopapain. In kind it is cell-based, human (patient). From the text: Cells bound to the semi-permeable substrate of the present invention may be pre-treated with a cell-releasing agent prior to removal by shear stress. The proteolytic enzyme chymopapain has been used to assist the removal of CD34^+ cells bound to a hollow fibre apparatus of the present invention.
A mononuclear cell concentrate was collected from a patient undergoing peripheral stem cell mobilisation with cyclophosphamide and G-CSF.
A Cuprophan hollow-fibre module (binding area ^~ 500 cm^2) was derivatised with antiCD34 monoclonal antibody (clone 9e5) using the hydrazide method as described previously with the following change in protocl. Cuprophan was derivatised with 25% ethylene glycol diglycidyl ether for 2 hours at room temperature.
A total of 1.7×10^8 cells in 4 mls of phosphate buffered saline with 0.5% human Ig and 0.5% bovine serum albumin added was injected into the vertically aligned module using blind-ended filtration. Residual cells in the inlet tubing were flushed with a further 0.5 ml of buffer (blind-ended filtration). The entire loading process took less than 8 minutes. Cells were loaded at approximately 340,000 cells/cm^2.
For cell deposition within the fibre lumen, the module was rotated into the horizontal position. After 4 minutes of settling time, the module was rotated around its long axis over a 12 minute period (2 full revolutions).
For cell recovery the module was returned to the vertical position. The CD34 depleted cell population was recovered in successive 10 ml fractions by incrementing shear stress up to 100 dynes/cm (Fraction numbers 1-5).
Following this, attached cells were incubated with the proteolytic enzyme Chymopapain (DISCASE™) at 400 pKat/ml. The incubation period lasted 20 minutes. During this time released cells were collected at low shear stress (0.2 dynes/cm^2, Fraction 6). Shear fractionation was then used to further purify treated cells. 10 ml fractions were collected at shear stresses of 10, 50 and 100 dynes/cm2.

Setting [1] is: Fraction 6, chymopapain + 0.2 dynes/cm^2.
Where [2] appears, read: Fraction 7, after chymopapain, 10 dynes/cm^2.
[3] abbreviates: Fraction 8, after chymopapain, 50 dynes/cm^2.
Where [4] appears, read: Fraction 9, after chymopapain, 100 dynes/cm^2.
[5] abbreviates: Fraction 10, after chymopapain, 100 dynes/cm^2.
[6] abbreviates: Fraction 11, after chymopapain, ~1000 dynes/cm^2 (3% dextran T2000).

In the case of “chymopapain: proteolytic enzyme Chymopapain (DISCASE™)”, the “CD34+ incidence” value turned out to be 93.1% under setting [1]; 86.1% under setting [2]; 1.91% under setting [3]; 1.19% under setting [4]; 0.54% under setting [5]; 0.31% under setting [6]. For the same substance, the “Number of CD34+ cells” value is listed as 640,000 under setting [1]; 1,770,000 under setting [2]; 45,100 under setting [3]; 12,400 under setting [4]; 3,060 under setting [5]; 2,050 under setting [6]. The “Total number of cells” value was 687,000 under setting [1]; 2,060,000 under setting [2]; 2,360,000 under setting [3]; 1,040,000 under setting [4]; 567,000 under setting [5]; 660,000 under setting [6]. In addition, the “CD34 antigen expression of released cells” value (flow cytometry (BG12-PE), chymopapain released cells) was 150-1600 channels. Further, the “purity of fractions 6 and 7” value (fractions 6 and 7) is reported as “at least 90%”. The “separation yield (CD34+ cells recovered/CD34+ cells input)” value (fractions 6 and 7 pooled) was determined as 53%.
